One molecule from US10537534B1, “Compositions and methods for treating skin conditions using visible light and resorcinols” (Johnson & Johnson Consumer Inc., priority 2019, dated 2020) can be followed below.

The subject of experiment [1] is C. acnes ATCC 6919. As to the kind of experiment: Minimum inhibitory concentration (MIC) of 4-hexyl resorcinol against C. acnes growth, serial dilution in 96-well plate, visible turbidity. Details: key: A “+” indicates growth; a “−” indicates no growth. The settings on record: anaerobic, 3 days, 35° C. The experiment is classed as cell-based, Cutibacterium acnes. How it is done:
(§1) A standard C. acnes ATCC 6919 culture is grown in Reinforced Clostridial Media (RCM) (Remel, Lenexa, Kans.). A suspension of C. acnes is adjusted to OD600=1.0 using a Spectromax M5 spectrophotometer (Molecular Devices, San Jose, Calif.) to yield a concentration of 10^8 cfu/ml. A 1:100 dilution of the standardized suspension is created to yield an inoculum concentration of 10^6 cfu/ml. Therefore, 100μl of inoculum into 100 μl of test sample yields 5×10^5 cfu/ml C. acnes within a 96-well experiment plate.
The minimum inhibitory concentration (MIC) of 4-hexyl resorcinol was determined to investigate its ability to inhibit the growth of C. acnes. All media and diluents were sterile. Aseptic techniques were used during study execution.
A C. acnes inoculum was prepared as set forth above.
A 0.1% (w/w) stock of 4-hexylresorcinol (Alfa Aesar, Tewksbury, Mass.) was made in RCM. Serial 1:2 dilutions were made in RCM across successive wells of a 96-well plate (sterile, u-bottom, untreated culture plate from Greiner Bio-one, Monroe, N.C.) to yield 10 test concentrations. After inoculation with equal volumes of C. acnes suspension, the test concentrations ranged from 0.05% through […] (v/v). Sterile RCM and 5×10^5 cfu/ml C. acnes in RCM were set up as a negative growth control and a positive growth control, respectively. Sterile 0.1% (w/w) 4-hexylresorcinol in RCM was set up as a turbidity control.
The 96-well plate was incubated anaerobically for 3 days at 35° C. The presence of visible turbidity within a challenged well was indicative of growth, while a clear well indicated no growth. The lowest concentration that inhibited C. acnes growth was determined to be the MIC. Negative growth control (not turbid) and positive growth control (turbid) results were as expected.

In experiment [2] the test system is C. acnes ATCC 6919. As to the kind of experiment: In vitro reduction of C. acnes by 4-hexylresorcinol with or without 440 nm blue light, colony count. Particulars: for Ave. Log Reduction ± S.D., arithmetic sum (expected additive): sum of light only and 0.002% 4-hexylresorcinol only. It counts as cell-based, Cutibacterium acnes. How it is done:
as §1
The culture is incubated in anaerobic chamber (<10 ppm O^2, 2.5-5% H^2, balance N^2 at 35±2° C.), in the dark, on an orbital shaker at 80 RPM. For test treatments including light, the prepared C. acnes culture is exposed for two, 60-minute light cycles with a 60-minute hold time between. Each light cycle is with blue light at wavelength 440 nm and 22±2 mW/cm^2 intensity. After treatments, the sample is incubated overnight (16±2 hours) in an anaerobic chamber. The sample is then recovered onto agar and incubated 5-7 days until clear colonies are visible. After growth, the remaining viable C. acnes colonies are counted; converted to cfu/ml and the log 10 reduction in number of cells is calculated (log 10 reduction=no light control sample−test sample).
A C. acnes inoculum was prepared as set forth above and in the same manner as Example 1. The solution was stored at 4° C. until time of use. The stock solution was added to RCM to produce a final concentration of 0.01% (v/v) and inoculated with 0.1 mL of the C. acnes suspension to yield 10^6 cfu/ml. The prepared culture in RCM+ALA was incubated by shaking at 80 rpm, in the dark (foil covered), and in an anaerobic chamber at 35±2° C. for 24 hours.
A 0.02% (w/v) of n-4-hexylresorcinol (Alfa Aesar, Tewksbury, Mass.) was prepared in RCM. The sample stock solution was mixed as 1:10 (v/v) with 24-hour C. acnes culture in RCM+ALA. Organism control culture was diluted 1:10 (v/v) with RCM for equivalent organism concentration.
The in vitro evaluation was conducted as follows. The prepared C. acnes culture (grown with ALA) was mixed with the test sample as described above, added to 6-well plates and then exposed to two 60-minute, 440 nm blue light (22 mW) exposures, separated by one 60-minute rest period in the dark. Two samples were tested: 4-hexylresorcinol at 0.002% (v/v) and 24-hour C. acnes culture in RCM+ALA alone. A duplicate, 6-well plate was kept un-exposed to light as a control. All plates were incubated anaerobically, overnight, in the dark (foil covered), and in an anaerobic chamber at 35±2° C.
After 24-hour incubation, samples were serial diluted and plated onto Reinforced Clostridial Agar (Remel, Lenexa, Kans.). Agar plates were incubated anaerobically at 35±2° C. for 5-7 days until bacterial colonies were well-established. Then, colonies were counted and colony forming units (CFU) per ml were calculated. Statistically significant differences are defined by unshared letter groupings.

With `CCCCCCc1ccc(O)cc1O` [4-hexylresorcinol], the Growth entry is recorded as “−” in experiment [1] (concentration 1.25E^−2 % v/v); “−” in experiment [1] (concentration 1.56E^−3 % v/v); “+” in experiment [1] (concentration 1.95E^−4 % v/v); “−” in experiment [1] (concentration 2.50E^−2 % v/v); “−” in experiment [1] (concentration 3.13E^−3 % v/v); “+” in experiment [1] (concentration 3.91E^−4 % v/v). Further, the Growth entry in experiment [1] (concentration 5.0E^−2 % v/v) is given as “−”; in experiment [1] (concentration 6.25E^−3 % v/v), “−”; in experiment [1] (concentration 7.81E^−4 % v/v), “+”; in experiment [1] (concentration 9.77E^−5 % v/v), “+”. For the same molecule, the “Ave. Log Reduction ± S.D.” value in experiment [2] (0.002% (v/v) 4-hexylresorcinol plus 440 nm blue light (22 mW), two 60-minute exposures, simultaneous) was 4.84 log; in experiment [2] (0.002% (v/v) 4-hexylresorcinol plus 440 nm blue light (22 mW), two 60-minute exposures, simultaneous, listed as HR) it was 4.84 ± 0.40 log; in experiment [2] (0.002% (v/v) 4-hexylresorcinol treatment only, no light) it was 1.00 log; in experiment [2] (0.002% (v/v) 4-hexylresorcinol treatment only, no light, listed as HR), 1.00 ± 0.55 log. For the same molecule, in experiment [2] (light plus 0.002% 4-hexylresorcinol versus arithmetic sum), the “Benefit from the synergistic combination over expected additive reduction” value was 100 fold. In addition, the “Ave. Log Reduction ± S.D., arithmetic sum (expected additive)” value in experiment [2] came to 2.83 log; in experiment [2] (listed as HR), 2.83 ± 1.08 log.
